In patent US7429602B2, “Treating conjunctivitis by topically administering an epinastine solution to the conjunctiva” (Boehringer Ingelheim Pharma GmbH & Co. Kg, priority 1999, dated 2008):

Tested on: conjunctiva (eosinophils, neutrophils, mast cell degranulation)
Details: conjunctiva examined two hours after ovalbumin
Method: 72 hours after the rats have been sensitized by injecting antiserum into the eyelids of the test animals, a fresh provocation was induced in them by intravenous administration of ovalbumin. Some of the experimental animals were pretreated by the administration of solution containing epinastine according to the invention into the conjunctival sac 15 minutes before the ovalbumin is administered. Two hours after the administration of ovalbumin the experimental animals were killed and the conjunctiva was investigated for its content of eosinophils and neutrophils and the mast cell granulation was determined.

[1] = epinastine solution into the conjunctival sac 15 minutes before i.v. ovalbumin, p<0.01

Compound: NC1=NCC2c3ccccc3Cc3ccccc3N12 (stereo not drawn) [epinastine, 3-amino-9,13b-dihydro-1H-dibenz-[c,f]imidazol[1,5-a]azepine]
- content of eosinophils in conjunctiva (epinastine solution 0.05-0.5% into the conjunctival sac 15 minutes before i.v. ovalbumin): significantly lower
- content of lymphocytes in conjunctiva [1]: significantly lower
- inhibition of mast cell degranulation [1]: roughly 35%
